{"source": "paper PMC5820187", "about": "(Archives of toxicology, 2017)", "key": {"embryonic zebrafish [1]": {"tested_on": "embryonic zebrafish", "conditions": "for Bioactivity across the developmental toxicity assays (morphology, EPR, LPR): exposure 6-120 hpf"}, "CYP1A protein expression": {"tested_on": "CYP1A protein expression", "conditions": "zebrafish, in vivo"}, "embryonic zebrafish [2]": {"tested_on": "embryonic zebrafish", "test": "Embryonic photomotor response", "type": "in vivo", "conditions": "24 hpf embryos; for EPR effect: any phase"}, "zebrafish larvae": {"tested_on": "zebrafish larvae", "test": "Larval photomotor response", "type": "in vivo", "conditions": "120 hpf larvae; for LPR effect: at least one phase (light or dark)"}, "[3]": {"conditions": "static exposure 6-120 hpf, 0.1-50 μM, assessed at 24 and 120 hpf"}, "[4]": {"conditions": "hierarchical clustering of lowest effect levels, Fig 2"}}, "note": "Where two headings read alike, the source gives them in different places."}
{"smiles": "O=C1C=Cc2ccccc2C1=O", "note": "[1,2-naphthoquinone]", "values": [{"measurement": "Mortality and morphological effects (developmental toxicity endpoints, LELs)", "setting": "embryonic zebrafish [1]; [3]", "result": "effects on mortality or morphology"}]}
{"smiles": "O=C1C=CC(=O)c2cc3ccccc3cc21", "note": "[1,4-anthraquinone]", "values": [{"measurement": "Bioactivity across the developmental toxicity assays (morphology, EPR, LPR)", "setting": "embryonic zebrafish [1]; 0.1-50 μM", "result": "most toxic derivative tested"}, {"measurement": "Concentrations with increased mortality", "setting": "embryonic zebrafish [1]; static exposure 6-120 hpf", "result": "below 10 μM"}]}
{"smiles": "Oc1cccc2c(O)cccc12", "note": "[1,5-dihydroxynaphthalene]", "values": [{"measurement": "Mortality and morphological effects (developmental toxicity endpoints, LELs)", "setting": "embryonic zebrafish [1]; [3]", "result": "effects on mortality or morphology"}]}
{"smiles": "Cc1cccc2c(C)cccc12", "note": "[1,5-dimethylnaphthalene]", "values": [{"measurement": "Tissue Type expressing CYP1A", "setting": "CYP1A protein expression", "result": "Liver"}]}
{"smiles": "Oc1cccc2ccccc12", "note": "[1-hydroxynaphthalene]", "values": [{"measurement": "Mortality and morphological effects (developmental toxicity endpoints, LELs)", "setting": "embryonic zebrafish [1]; zebrafish, in vivo", "result": "effects on mortality or morphology"}]}
{"smiles": "Oc1cc2ccccc2cc1O", "note": "[2,3-dihydroxynaphthalene]", "values": [{"measurement": "EPR effect", "setting": "embryonic zebrafish [2]", "result": "significant effects on EPR"}]}
{"smiles": "Cc1ccc2cc(C)ccc2c1", "note": "[2,6-dimethylnaphthalene]", "values": [{"measurement": "LPR effect", "setting": "zebrafish larvae", "result": "All derivatives except 2,6-dimethylnaphthalene had LPR effects in at least one phase"}]}
{"smiles": "CCc1ccc2c(c1)C(=O)c1ccccc1C2=O", "note": "[2-ethylanthraquinone]", "values": [{"measurement": "LPR effect", "setting": "zebrafish larvae", "result": "every derivative except 2-nitroanthracene and 2-ethylanthraquinone affected LPR behavior"}, {"measurement": "Tissue Type expressing CYP1A", "setting": "CYP1A protein expression", "result": "Yolk"}, {"measurement": "Mortality and morphological effects (developmental toxicity endpoints, LELs)", "setting": "embryonic zebrafish [1]; zebrafish, in vivo", "result": "increased mortality"}, {"measurement": "Number of developmental endpoints affected", "setting": "embryonic zebrafish [1]; zebrafish, in vivo", "result": 15}]}
{"smiles": "Oc1ccc2ccccc2c1", "note": "[2-hydroxynaphthalene]", "values": [{"measurement": "Mortality and morphological effects (developmental toxicity endpoints, LELs)", "setting": "embryonic zebrafish [1]; zebrafish, in vivo", "result": "effects on mortality or morphology"}]}
{"smiles": "O=[N+]([O-])c1ccc2cc3ccccc3cc2c1", "note": "[2-nitroanthracene]", "values": [{"measurement": "LPR effect", "setting": "zebrafish larvae", "result": "every derivative except 2-nitroanthracene and 2-ethylanthraquinone affected LPR behavior"}]}
{"smiles": "O=[N+]([O-])c1cc2ccc3cccc4ccc(c1)c2c34", "note": "[2-nitropyrene]", "values": [{"measurement": "Bioactivity across the developmental toxicity assays (morphology, EPR, LPR)", "setting": "embryonic zebrafish [1]; 0.1-50 μM", "result": "only the cumulative ‘any’ endpoints"}]}
{"smiles": "Cc1ccc2ccc3ccc(C)cc3c2c1", "note": "[3,6-dimethylphenanthrene]", "values": [{"measurement": "EPR effect", "setting": "embryonic zebrafish [2]", "result": "hypoactivity"}, {"measurement": "LPR effect in the light phase", "setting": "zebrafish larvae", "result": "effects on LPR in the light"}]}
{"smiles": "c1ccc2cc3ccccc3cc2c1", "note": "[Anthracene]", "values": [{"measurement": "Mortality and morphological effects (developmental toxicity endpoints, LELs)", "setting": "embryonic zebrafish [1]; [3]", "result": "no observed morphology effects"}]}
{"smiles": "O=C1c2ccccc2C(=O)c2ccccc21", "note": "[Anthraquinone]", "values": [{"measurement": "Mortality and morphological effects (developmental toxicity endpoints, LELs)", "setting": "embryonic zebrafish [1]; [3]", "result": "did not cause morphological effects"}]}
{"smiles": "c1ccc2cc3c4ccccc4c4ccccc4c3cc2c1", "note": "[Dibenz[a,c]anthracene]", "values": [{"measurement": "Developmental toxicity profile group", "setting": "embryonic zebrafish [1]; [4]", "result": "Groups 1 and 2"}]}
{"smiles": "c1ccc2c(c1)cc1ccc3c4ccccc4cc4ccc2c1c43", "note": "[Dibenzo[a,h]pyrene]", "values": [{"measurement": "EPR effect in the Refractory period", "setting": "embryonic zebrafish [2]", "result": "hypoactive response"}]}
{"smiles": "c1ccc2c(c1)cc1ccc3cc4ccccc4c4ccc2c1c34", "note": "[Dibenzo[a,i]pyrene]", "values": [{"measurement": "Mortality and morphological effects (developmental toxicity endpoints, LELs)", "setting": "embryonic zebrafish [1]; [3]", "result": "no observed morphology effects"}]}
{"smiles": "c1ccc2c(c1)cc1ccc3cccc4c5ccccc5c2c1c34", "note": "[Dibenzo[a,l]pyrene]", "values": [{"measurement": "Developmental toxicity profile group", "setting": "embryonic zebrafish [1]; [4]", "result": "Groups 1 and 2"}]}
{"smiles": "c1ccc2c(c1)oc1ccccc12", "note": "[Dibenzofuran]", "values": [{"measurement": "Tissue Type expressing CYP1A", "setting": "CYP1A protein expression", "result": "Vasculature"}]}
{"smiles": "c1ccc2c(c1)-c1cccc3cccc-2c13", "note": "[Fluoranthene]", "values": [{"measurement": "Tissue Type expressing CYP1A", "setting": "CYP1A protein expression", "result": "Vasculature, Yolk"}]}
{"smiles": "c1ccc2[nH]ccc2c1", "note": "[Indole]", "values": [{"measurement": "Tissue Type expressing CYP1A", "setting": "CYP1A protein expression", "result": "Yolk"}]}
{"smiles": "c1ccc2ccccc2c1", "note": "[Naphthalene]", "values": [{"measurement": "LPR effect in the dark phase", "setting": "zebrafish larvae", "result": "hyperactivity"}, {"measurement": "LPR effect in the light phase", "setting": "zebrafish larvae", "result": "hyperactivity"}]}
{"smiles": "c1ccc2c(c1)ccc1ccccc12", "note": "[Phenanthrene]", "values": [{"measurement": "EPR effect", "setting": "embryonic zebrafish [2]", "result": "did not induce mortality or morphology changes, EPR effects"}, {"measurement": "LPR effect in the light phase", "setting": "zebrafish larvae", "result": "hyperactivity"}]}
{"smiles": "c1cc2ccc3cccc4ccc(c1)c2c34", "note": "[Pyrene]", "values": [{"measurement": "LPR effect", "setting": "zebrafish larvae", "result": "significant LPR effects"}]}
{"smiles": "c1ccc2ncccc2c1", "note": "[Quinoline]", "values": [{"measurement": "EPR effect", "setting": "embryonic zebrafish [2]", "result": "only had an observed effect on EPR"}, {"measurement": "Developmental toxicity profile group", "setting": "embryonic zebrafish [1]; zebrafish, in vivo", "result": "Group 5"}]}
{"smiles": "Cc1cccc2c1ccc1cc(C(C)C)ccc12", "note": "[Retene]", "values": [{"measurement": "Tissue Type expressing CYP1A", "setting": "CYP1A protein expression", "result": "Vasculature"}]}
